According to patent US10059956B2, “Glycosyltransferase gene and use thereof” (SUNTORY HOLDINGS LIMITED, priority 2012, dated 2018):

test system: NmGT8 protein; assay: Enzyme reaction of flavone substrates with His-tag purified NmGT8 protein solution and UDP-glucose (HPLC); format: biochemical, Nemophila menziesii; conditions: NmGT8 protein solution, UDP-glucose, 1 mM substrate stock, 20 minutes at 30° C., HPLC 330 nm
Method: The transformed E. coli were cultured at 37° C. to an OD600 value of 0.5 in 8 ml of the prepared culture liquid (approx. 4 hours). This E. coli culture liquid was then used as a pre-culture liquid and added to 200 ml of culture liquid followed by final culturing overnight at 25° C.
Following final culturing overnight, the E. coli culture liquid was centrifuged (1000×g, 4° C., 10 minutes), the collected cells were suspended in 20 ml of extract (composition: buffer (KCl: 300 mM, KH2PO4: 50 mM, imidazole: 5 mm) (pH 8.0), amidinophenylmethanesulfonyl fluoride hydrochloride (APMSF): 10 μM), and after crushing the E. coli by ultrasonic treatment, the crushed cells were centrifuged (1400×g, 4° C., 20 minutes) followed by recovery of the supernatant. This supernatant was passed through a 0.45 μm filter and purified by His-Tag protein purification using Profinia (Bio-Rad Laboratories, Inc.) in accordance with the protocol recommended by the manufacturer. The resulting purified protein solution was centrifuged (7500×g, 4° C., 15 minutes) using centrifugal filters (Ultracel-10K, Amicon Corp.) and the concentrated protein solution was designated as “NmGT8 Protein Solution”. The Avanti HP-26XP (rotor: JA-2) (Beckman Coulter Inc.) was used for centrifugation.
A reaction liquid prepared by mixing 10 μl of protein solution, 2 μl of 50 mM UDP-glucose, 10 μl of 1 M Tris HCl (pH 7.5) and 5 μl of 1 mM apigenin on ice and bringing to a volume of 100 μl with water was held for 20 minutes at 30° C. Subsequently, 100 μl of stop buffer (90% aqueous acetonitrile solution containing 0.1% TFA) were added to stop the reaction followed by analyzing the reaction liquid by high-performance liquid chromatography (Prominence (Shimadzu Corp.)). The Shimadzu PDA SPD-M10AVP was used for the detector and flavone was detected at 330 nm. The Shim-Pack ODS 150 mm×4.6 mm column (Shimadzu Corp.) was used for the column. A Solution A (0.1% aqueous TFA solution) and a Solution B (90% aqueous methanol solution containing 0.1% TFA) were used for elution. Elution was carried out using a linear concentration gradient from an 8:2 mixture of the two solutions to a 3:7 mixture of the two solutions over the course of 10 minutes followed by a 3:7 mixture for 6 minutes. The flow rate was 0.6 ml/min.

| Compound | glycosylation product biosynthesized from the substrate |
| --- | --- |
| O=c1cc(-c2ccc(O)cc2)oc2cc(O[C@@H]3O[C@H](CO)[C@@H](O)[C@H](O)[C@H]3O)cc(O)c12 [apigenin 7-glucoside] | apigenin 4′,7-diglucoside was not biosynthesized |
| O=c1cc(-c2ccc(O)cc2)oc2cc(O)cc(O)c12 [apigenin, 4′,5,7-trihydroxyflavone] | flavone demonstrating the same retention time and absorption maximum as purified apigenin 4′-glucoside was biosynthesized |
| O=c1cc(-c2ccc(O)c(O)c2)oc2cc(O[C@@H]3O[C@H](CO)[C@@H](O)[C@H](O)[C@H]3O)cc(O)c12 [luteolin 7-glucoside] | luteolin 4′,7-diglucoside was also not biosynthesized |
| O=c1cc(-c2ccc(O)c(O)c2)oc2cc(O)cc(O)c12 [luteolin, 3′,4′,5,7-tetrahydroxyflavone] | Luteolin 4′-glucoside was biosynthesized |
